# Experimental data published in the supplement of paper PMC10307832.
# Columns and labels:
# Test in all cases: relative viability (nuclei count vs DMSO), 5 days (fraction); higher = more cells survive
# AZ505 = compound: C1CCC(CC1)N(CCNCCC2=C3C(=C(C=C2)O)NC(=O)CO3)C(=O)CCNCCC4=CC(=C(C=C4)Cl)Cl [AZ505]
# Summary of the method: (§1)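 For viability, nuclei in each treated well were divided by nuclei in vehicle wells and the median across plates was taken. Lung cancer cell lines in 1536-well plates were pinned with five library-drug doses (not always all listed) spaced by √10, cultured 5 days without medium change, and imaged at 4× after Hoechst staining, with plates passing only at control CV below 25% and at least one doubling.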
# Dactolisib = compound: Cn1c(=O)n(-c2ccc(C(C)(C)C#N)cc2)c2c3cc(-c4cnc5ccccc5c4)ccc3ncc21 [Dactolisib]
# Summary of the method: as §1
# AZ505 + Foretinib = compound: C1CCC(CC1)N(CCNCCC2=C3C(=C(C=C2)O)NC(=O)CO3)C(=O)CCNCCC4=CC(=C(C=C4)Cl)Cl [AZ505] + COc1cc2c(Oc3ccc(NC(=O)C4(C(=O)Nc5ccc(F)cc5)CC4)cc3F)ccnc2cc1OCCCN1CCOCC1 [Foretinib] (partner 0.25 µM)
# Summary of the method: (§2)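 Lung cancer cell lines in 1536-well plates were dosed by pin tool the day after seeding, either with one drug alone or with a fixed anchor-drug dose plus five library-drug doses (not always all listed) in √10 steps. After 5 days, cells were fixed and their nuclei stained in one step (final 0.05% Triton X-100, 1% formaldehyde, 1 ug/ml Hoechst), then counted on 4× images. Relative viability is the nuclei count in treated wells divided by that in vehicle wells. Values are medians of duplicate plates.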
# AZ505 + Lapatinib = compound: C1CCC(CC1)N(CCNCCC2=C3C(=C(C=C2)O)NC(=O)CO3)C(=O)CCNCCC4=CC(=C(C=C4)Cl)Cl [AZ505] + CS(=O)(=O)CCNCc1ccc(-c2ccc3ncnc(Nc4ccc(OCc5cccc(F)c5)c(Cl)c4)c3c2)o1 [Lapatinib] (partner 2 µM)
# Summary of the method: as §2
cell line,measurement,setting,value
UMC-11,relative viability,AZ505; 0.08 µM,0.887
same,relative viability,AZ505; 0.253 µM,0.994
same,relative viability,AZ505; 0.8 µM,0.94
same,relative viability,AZ505; 2.53 µM,1.07
same,relative viability,AZ505; 8 µM,1.03
same,relative viability,Dactolisib; 0.002 µM,0.96
same,relative viability,Dactolisib; 0.006325 µM,0.836
same,relative viability,Dactolisib; 0.02 µM,0.77
same,relative viability,Dactolisib; 0.06325 µM,0.398
same,relative viability,Dactolisib; 0.2 µM,0.273
same,relative viability,AZ505 + Foretinib; first compound 0.08 µM,0.975
same,relative viability,AZ505 + Foretinib; first compound 0.253 µM,1.15
same,relative viability,AZ505 + Foretinib; first compound 0.8 µM,0.922
same,relative viability,AZ505 + Foretinib; first compound 2.53 µM,1.09
same,relative viability,AZ505 + Foretinib; first compound 8 µM,1.11
same,relative viability,AZ505 + Lapatinib; first compound 0.08 µM,0.86
same,relative viability,AZ505 + Lapatinib; first compound 0.253 µM,0.943
same,relative viability,AZ505 + Lapatinib; first compound 0.8 µM,0.901
same,relative viability,AZ505 + Lapatinib; first compound 2.53 µM,1.11
same,relative viability,AZ505 + Lapatinib; first compound 8 µM,0.976
